Measured values published in PMC6086658, “Unified mechanisms for self-RNA recognition by RIG-I Singleton-Merten syndrome variants” (eLife, 2018).
{Cy3} = Cy3 fluorescent label

What was measured:
RIG-I C268F [1] = target: T1, RIG-I C268F (Homo sapiens, UniProt O95786, C268F); assay: MANT-nucleotide binding, tryptophan fluorescence FRET
T1 construct: made in house; host or cells: High Five (Trichoplusia ni) insect cells, baculovirus, pFBDM vector
T1 sequence (O95786 1-925 C268F): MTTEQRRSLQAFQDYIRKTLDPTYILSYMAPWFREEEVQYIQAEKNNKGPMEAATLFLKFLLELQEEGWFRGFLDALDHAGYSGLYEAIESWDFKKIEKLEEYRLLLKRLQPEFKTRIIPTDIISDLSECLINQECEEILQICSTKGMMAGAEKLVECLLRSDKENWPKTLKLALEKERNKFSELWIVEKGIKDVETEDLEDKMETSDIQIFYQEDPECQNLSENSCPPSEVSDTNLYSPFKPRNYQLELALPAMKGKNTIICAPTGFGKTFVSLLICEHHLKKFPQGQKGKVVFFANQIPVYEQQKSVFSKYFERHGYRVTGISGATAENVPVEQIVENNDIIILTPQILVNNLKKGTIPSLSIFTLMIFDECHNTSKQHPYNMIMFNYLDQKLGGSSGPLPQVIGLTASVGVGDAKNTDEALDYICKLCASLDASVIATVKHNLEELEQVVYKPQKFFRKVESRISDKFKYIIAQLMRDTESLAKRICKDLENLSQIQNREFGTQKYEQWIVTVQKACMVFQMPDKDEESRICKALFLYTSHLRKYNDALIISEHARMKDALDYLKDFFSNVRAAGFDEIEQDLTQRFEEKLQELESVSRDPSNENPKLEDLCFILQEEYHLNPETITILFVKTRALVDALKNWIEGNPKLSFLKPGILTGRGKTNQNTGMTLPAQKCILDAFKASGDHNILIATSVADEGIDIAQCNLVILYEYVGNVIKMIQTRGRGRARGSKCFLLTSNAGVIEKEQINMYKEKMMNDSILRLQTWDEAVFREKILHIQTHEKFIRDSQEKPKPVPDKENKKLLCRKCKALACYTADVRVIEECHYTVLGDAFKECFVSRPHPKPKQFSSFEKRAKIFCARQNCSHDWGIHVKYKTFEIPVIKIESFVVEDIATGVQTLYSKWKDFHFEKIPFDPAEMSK
Experimental: (§1) Binding of MANT-ATP and MANT-ATPγS to different full-length RIG-I mutants (1–925, N-terminal His-tag) was determined via Förster resonance energy transfer from RIG-I to MANT-ATP (Jena Bioscience, Jena, Germany). All samples were prepared in 96-well black chimney microplates. 2.2 µM protein and equimolar concentrations of a 14mer dsRNA (5'-CGACGCUAGCGUCG-3', see 'Protein crystalization') were pre-incubated with different MANT-ATP concentrations (0.2 µM – 200 µM) for 15 min at room temperature in assay buffer (25 mM HEPES, 50 mM NaCl, 5 mM MgCl2, 1 mM DTT, pH 7). Fluorescence of MANT-ATP was measured in a TECAN M1000 microplate reader at λex/em = 290/448 nm, gain = 170 using an average of five reads per well. Assays were performed four times in independent experiments using the same protein purification batch. For determination of affinities fluorescence values were fitted to Equation (1) using R, where y is the fluorescence, [P] is the protein concentration, Bmax is the maximal fluorescence and KD is the dissociation constant. Fitting was performed globally on all available datasets. Representative values in figures are mean values ± SD.

RIG-I [2] = target: T2, RIG-I (Homo sapiens, UniProt O95786); assay: as above; details: n = 4
T2 construct: Recombinant full-length human RIG-I or RIG-I single amino acid mutants (1–925, N-terminal His-tag); made in house; host or cells: High Five (Trichoplusia ni) insect cells, baculovirus, pFBDM vector
T2 sequence (O95786 1-925): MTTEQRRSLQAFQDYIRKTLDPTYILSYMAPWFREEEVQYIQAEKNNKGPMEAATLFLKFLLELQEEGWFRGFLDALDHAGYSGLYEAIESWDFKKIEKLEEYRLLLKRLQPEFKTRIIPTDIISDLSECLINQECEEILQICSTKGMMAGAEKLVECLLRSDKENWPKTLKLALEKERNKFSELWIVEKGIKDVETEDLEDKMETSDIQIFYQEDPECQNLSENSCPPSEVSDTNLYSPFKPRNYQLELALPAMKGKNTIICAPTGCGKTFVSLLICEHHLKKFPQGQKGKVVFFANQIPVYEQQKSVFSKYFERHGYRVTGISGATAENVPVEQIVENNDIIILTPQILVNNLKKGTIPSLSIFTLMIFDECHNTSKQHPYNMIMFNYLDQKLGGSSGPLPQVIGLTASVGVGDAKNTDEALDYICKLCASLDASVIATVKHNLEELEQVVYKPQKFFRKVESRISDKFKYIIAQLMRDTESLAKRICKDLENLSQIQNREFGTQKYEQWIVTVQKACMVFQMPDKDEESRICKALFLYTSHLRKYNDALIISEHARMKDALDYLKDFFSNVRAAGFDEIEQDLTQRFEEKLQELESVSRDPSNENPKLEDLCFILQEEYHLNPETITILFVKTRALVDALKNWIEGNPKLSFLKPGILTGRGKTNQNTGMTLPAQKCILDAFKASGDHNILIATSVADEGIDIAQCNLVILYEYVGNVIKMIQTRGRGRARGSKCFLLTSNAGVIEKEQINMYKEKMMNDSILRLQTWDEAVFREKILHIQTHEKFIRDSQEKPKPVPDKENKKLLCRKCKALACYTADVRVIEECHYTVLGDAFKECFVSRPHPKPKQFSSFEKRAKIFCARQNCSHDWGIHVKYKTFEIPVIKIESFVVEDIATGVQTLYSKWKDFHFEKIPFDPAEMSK
Experimental: as §1, with “All samples were prepared in 96-well black chimney microplates. 2.2 µM protein and equimolar concentrations of a 14mer dsRNA (5'-CGACGCUAGCGUCG-3', see 'Protein crystalization') were pre-incubated with different MANT-ATP concentrations (0.2 µM – 200 µM) for 15 min at room temperature in assay buffer (25 mM HEPES, 50 mM NaCl, 5 mM MgCl2, 1 mM DTT, pH 7).” left out

RIG-I C268F [3] = target: T1, RIG-I C268F; assay: Fluorescence anisotropy RNA binding; details: 10 nM labeled RNA, one-site binding fit, n = 4
Experimental: (§2) Affinities of full-length RIG-I or RIG-I C268F (1–925, N-terminal His-tag) to a Cy3-labeled hpRNA (5'-Cy3-[…]-3', purchased from Biomers, Ulm, Germany) were determined using fluorescence anisotropy. All samples were prepared in 96-well black chimney microplates (Greiner Bio-One, Kremsmünster, Austria). 10 nM RNA was pre-incubated with different protein concentrations (2.4 nM – 5 µM) for 15 min at room temperature in assay buffer (25 mM HEPES, 50 mM KCl, 5 mM MgCl2, 1 mM DTT, pH 7). Fluorescence anisotropy was measured after the addition of 5 mM ATP using a TECAN M1000 microplate reader (Tecan, Männedorf, Switzerland) at λex/em = 530/570 nm and gain = 130 during a time course of 25 min in 1 min intervals. Assays were performed four times in independent experiments using the same protein purification batch. For determination of affinities, anisotropy values between 15 and 20 min measuring time were averaged and fit to the following single-site binding model using R ([R Development Core Team, 2013]):(1) y=Bmax[P]/P+KD where y is the observed anisotropy, [P] is the protein concentration, Bmax is the maximal anisotropy and KD is the dissociation constant. Fitting was performed globally on all available datasets. Representative values in figures are mean values ± SD.

RIG-I [4] = target: T2, RIG-I; assay: Fluorescence anisotropy RNA binding; details: 10 nM labeled RNA, one-site binding fit, n = 4
Experimental: as §2

MANT-ATPγS
Kd (RIG-I C268F [1]; absence of RNA, n = 4, read-out: Affinity (KD) to RIG-I C268F): 116 ± 13 µM | Kd (RIG-I C268F [1]; presence of equimolar 14mer dsRNA, n.f. = no fit possible as no saturation was reached, read-out: Affinity (KD) to RIG-I C268F + RNA): 147 ± 55 µM | Kd (RIG-I [2]; absence of RNA, full-length His-RIG-I, read-out: Affinity (KD) to RIG-I): 58 ± 7 µM | Kd (RIG-I [2]; presence of equimolar 14mer dsRNA, read-out: Affinity (KD) to RIG-I + RNA): 11 ± 1 µM

5'-Cy3-CCACCCGCCCCCCUAGUGAGGGGGGCGGGCC-3' (RNA, 5' {Cy3}, backbone not given here; RNA hairpin ligand with non-base-paired ends, used in fluorescence anisotropy binding assays) [fluorescently labeled 14mer dsRNA, Cy3-labeled hairpin RNA containing non-base-paired RNA ends, purchased from Biomers]
Kd (RIG-I C268F [3]; absence of ATP, read-out: KD, RIG-I C268F): 0.098 µM | Kd (RIG-I C268F [3]; presence of 5 mM ATP, read-out: KD, RIG-I C268F + ATP): 0.058 µM | Kd (RIG-I [4]; absence of ATP, read-out: KD, RIG-I): 0.54 µM | Kd (RIG-I [4]; presence of 5 mM ATP, read-out: KD, RIG-I + ATP): 1.04 µM
